Reference: patent US5244662A, “Medicinal extract from a mixture of Phellodendron and defatted seed of Croton, and method for it's manufacture” (Korea Green Cross Corporation, priority 1990, dated 1993)
Blank lines part the entries; values can stand above or below the molecule they belong to.

Key:
osteoporosis = assay: Clinical trial in osteoporosis; type: in vivo, patient
Text: (G-1) Clinical trial on a severe case whose vertebral density was just 0.332 g/cm^2 (29% of normal value), that is, corresponding to the 10th year from each menopause and the inability to walk over ten minutes. […]

[1] = treatment of osteoporosis; cited from earlier work
granuloma cells = assay: Action on primary granuloma cells (progesterone production); type: cell-based, rats
Procedure: Current antitumour drugs affect normal cellular growth as well as growth of tumour cells, whereby very careful therapeutic application of the agents has been required. […] The action of the present extract on spleen cells and granuloma cells was investigated to evaluate the action on normal cellular growth.
The spleen cells originated from BALB/C mice and were cultured in RPMI media under the condition of 7% CO2 /37° C. The granuloma cells originated from the ovum of young rats aged 25 days and were cultured in DMEM/F 12(1:1) media containing fetal bovine serum under the same conditions.

PO-GRSI cells = assay: Steroid hormone synthesis of PO-GRSI; type: cell-based
Procedure: Granuloma cells play an important role in producing ovum in mammalian animals, and particularly secrete progesterone to enhance the proliferation of ovum. Granuloma cells metastasized artificially with carcinogenic genes (SV-40 and Ha-Ras) have the ability to synthesize both progesterone, the cell's original function and protein, and the original function of the carcinogenic gene. For the test, PO-GRSI and PA-GS6 were cultured in DMEM/F12(1:1) haematologic culture media containing insulin(2 μg/ml), transferin (5 μg/ml), hydrocortisone(40 μg/ml) and fibronectin(5 μg/ml), and the progesterone was analyzed by radioimmunoassay ([…]).
The antitumour activities of the extract obtained in Example 1 against Granuloma cells were determined also by evaluating its action on the progesterone and 20 alpha --OH-- progesterone synthesis of the captioned two kinds of cells. In the meantime, the action of FORSKOLIN to enhance the two steroid hormone syntheses were also checked.

P388 (ATCC CCL 46) = system: P388 (ATCC CCL 46); set-up: species or system BDFI mice; conditions: mouse, in vivo
L1210 (ATCC CCL 219) = system: L1210 (ATCC CCL 219); set-up: species or system BDFI mice; conditions: mouse, in vivo

SMILES: CC#C[C@]1(O)CC[C@H]2[C@@H]3CCc4cc(O)ccc4[C@H]3CC[C@@]21C [Estrogen]
vertebral density maintained (osteoporosis): 0.341 g/cm^2

SMILES: [F-].[Na+] [Sodium fluoride]
adverse effects of nausea and gastric irritation [1]: About 30%
rheumatic pain in leg joints [1]: 10%

increase of 20 alpha-OH-progesterone synthesis over the control (PO-GRSI cells): 100 times
increase of progesterone synthesis over the control (PO-GRSI cells): 60 times
SMILES: C=C[C@@]1(C)CC(=O)[C@]2(O)[C@@]3(C)[C@@H](O)CCC(C)(C)[C@@H]3[C@H](O)[C@H](OC(C)=O)[C@@]2(C)O1 [forskolin]
progesterone secretion versus control (granuloma cells; forskolin): eight times that of the control
progesterone (granuloma cells; forskolin 10^-4 M, control 109.6): 829.0 ng/mL

SMILES: CO[C@@]12[C@H](COC(N)=O)C3=C(C(=O)C(C)=C(N)C3=O)N1C[C@@H]1N[C@@H]12 [mitomycin C]
survival rate (%) (P388 (ATCC CCL 46)): 130.4%
survival time (P388 (ATCC CCL 46)): 21.6 days
survival rate (%) (L1210 (ATCC CCL 219)): 135%
survival time (L1210 (ATCC CCL 219)): 21 days
